Assays:
Format in all cases: in vivo, human
[1] = tested on: healthy women of reproductive age; experiment: Study 15818: hot flush events during treatment period; conditions: for Hot flush events, Events (%): 12 weeks
Description: Example 3: Hot Flush Event in Study Subject Treated with Compound 1 (Cp1)
See full study description in Example 2.
Hot flush event were reported and monitored during treatment period.

[2] = tested on: women diagnosed with uterine fibroids; experiment: Study 17541/A1: hot flush events during treatment; conditions: Cp1 2.0 mg once daily oral, 24 weeks
Description: Example 7: Hot Flush Events in Study Subject Treated with Compound 1 (Cp1)
See full study description in Example 6.
(§1) Hot flush events were reported and monitored during treatment.

[3] = tested on: women diagnosed with uterine fibroids; experiment: Study 15788: hot flush events during treatment
Description: Example 5: Hot Flush Events in Study Subject Treated with Compound 1 (Cp1)
See full study description in Example 4.
as §1

[4] = tested on: healthy women of reproductive age; experiment: Study 15818: estradiol (E2) serum concentration after daily oral Compound 1
Protocol: Example 2: Circulating Endogenous Estrogen Concentrations in Healthy Women of Reproductive Age Receiving Compound 1 (Cp1)
Study protocol (N^o 15818): A randomized, double-blind, parallel-group, multi-center study to investigate the pharmacodynamics, pharmacokinetics and safety after daily oral administration of 4 different doses of Compound 1 in healthy women of reproductive age
Doses: 0.5 mg, 1 mg, 2 mg, or 4 mg once daily
Route of administration: Oral
Duration of treatment: 1×12 weeks (84 days)
• Age: 18-40 years • Smoking ≤10 cigarettes/day • Body mass index ≥18 and ≤32 kg/m^2 • Signed informed consent prior to study participation • No contraindication for intake of Compound 1 • Ovulation in pre-treatment cycle • Use of non-hormonal contraception during the study. Number of Subjects: see Table 1 for the number of subjects per Dosage Measurement of primary variable Estradiol: The estradiol (E2) serum concentration was assessed for each subject at the following Visit Days of the study, see FIG. 1 • Pre-treatment Day 9 (D9) corresponds to the period before start of Compound 1 uptake; the pre-treatment cycle starts on the first day of the subject waking up with menstrual bleeding with intensity more than spotting after screening examinations have shown that the subject is eligible for further participation. The pre-treatment period ends by the starting of next menstrual bleeding; • Treatment Day (D84) corresponds to last intake of Compound 1. The treatment phase started with the first and ended with the last intake of the study drug. The subjects have to start the intake of Compound 1 during the first week of the menstrual cycle after the pre-treatment cycle until the last Treatment Day (D84). • The follow-up cycle 1 started on the first day without study drug intake and will end in case of start of menstrual bleeding (i.e. when the subject is waking up with menstrual bleeding with intensity more than spotting). The first day of menstrual bleeding will define the start of follow-up cycle 2. Follow-up cycle 2 ended when the subjects report the next menstrual bleeding (i.e. first day of waking up with menstrual bleeding with intensity more than spotting).
During pre-treatment, end of treatment and at Follow-up Cycle 2, Estradiol (E2) serum concentrations are measured.
Eligible subjects were randomized to one of the treatment groups (0.5 mg, 1 mg, 2 mg, or 4 mg Compound 1). The treatment period consisted of 12 weeks (84 days) of daily tablet intake.

[5] = Cp1 0.5 mg once daily oral, Follow-up cycle2 D 9
[6] = Cp1 0.5 mg once daily oral, Pre-treatment D 9
[7] = Cp1 0.5 mg once daily oral, Treatment D 84
[8] = Cp1 1 mg once daily oral, Follow-up cycle2 D 9
[9] = Cp1 1 mg once daily oral, Pre-treatment D 9
[10] = Cp1 1 mg once daily oral, Treatment D 84
[11] = Cp1 2 mg once daily oral, Follow-up cycle2 D 9
[12] = Cp1 2 mg once daily oral, Pre-treatment D 9
[13] = Cp1 2 mg once daily oral, Treatment D 84
[14] = Cp1 4 mg once daily oral, Follow-up cycle2 D 9
[15] = Cp1 4 mg once daily oral, Pre-treatment D 9
[16] = Cp1 4 mg once daily oral, Treatment D 84

C[C@]12C[C@H](c3ccc(S(C)(=O)=O)cc3)C3=C4CCC(=O)C=C4CC[C@H]3[C@@H]1CC[C@@]2(O)C(F)(F)C(F)(F)F [Compound 1, (11β,17β)-17-Hydroxy-11-[4-(methylsulphonyl)phenyl]-17-(pentafluoroethyl)estra-4,9-dien-3-one]
Hot flush events, Events (%) ([1]; Cp1 0.5 mg once daily oral): 5.6% | Hot flush events, Events (%) ([1]; Cp1 1.0 mg once daily oral): 11.1% | Hot flush events, Events (%) ([1]; Cp1 2.0 mg once daily oral): 17.6% | Hot flush events, Events (%) ([1]; Cp1 4.0 mg once daily oral): 29.4% | Severe hot flushes ([1]; all dose groups 0.5-4 mg): No severe hot flushes were reported | Subjects reporting hot flush, total study subjects ([1]; all dose groups 0.5-4 mg): 11 | Hot flush events, Events (%) [2]: no more than 11.4% | Hot flush events, Events (%) ([2]; listed as Cp1): 11.4% | Hot flush events, MILD, number of subjects ([3]; Cp1 0.5 mg, N = 60, 12 weeks): 5 | Hot flush events, MILD, percent of subjects ([3]; Cp1 0.5 mg, N = 60, 12 weeks): 8.3% | Hot flush events, MODERATE, number of subjects ([3]; Cp1 0.5 mg, N = 60, 12 weeks): 0 | Hot flush events, SEVERE, number of subjects ([3]; Cp1 0.5 mg, N = 60, 12 weeks): single | Hot flush events, SEVERE, percent of subjects ([3]; Cp1 0.5 mg, N = 60, 12 weeks): 1.7% | Hot flush events, Total, number of subjects ([3]; Cp1 0.5 mg, N = 60, 12 weeks): 6 | Hot flush events, Total, percent of subjects ([3]; Cp1 0.5 mg, N = 60, 12 weeks): 0.0% | Hot flush events, SEVERE, number of subjects ([3]; Cp1 0.5 mg, N = 60, 12 weeks, listed as Cp1): 1 | Hot flush events, MILD, number of subjects ([3]; Cp1 1 mg, N = 61, 12 weeks): 3 | Hot flush events, MILD, percent of subjects ([3]; Cp1 1 mg, N = 61, 12 weeks): 4.9% | Hot flush events, MODERATE, number of subjects ([3]; Cp1 1 mg, N = 61, 12 weeks): 2 | Hot flush events, MODERATE, percent of subjects ([3]; Cp1 1 mg, N = 61, 12 weeks): 3.3% | Hot flush events, SEVERE, number of subjects ([3]; Cp1 1 mg, N = 61, 12 weeks): 0 | Hot flush events, Total, number of subjects ([3]; Cp1 1 mg, N = 61, 12 weeks): 5 | Hot flush events, Total, percent of subjects ([3]; Cp1 1 mg, N = 61, 12 weeks): 8.2% | Hot flush events, MILD, number of subjects ([3]; Cp1 2 mg, N = 61, 12 weeks): 4 | Hot flush events, MILD, percent of subjects ([3]; Cp1 2 mg, N = 61, 12 weeks): 6.6% | Hot flush events, MODERATE, number of subjects ([3]; Cp1 2 mg, N = 61, 12 weeks): 1 | Hot flush events, MODERATE, percent of subjects ([3]; Cp1 2 mg, N = 61, 12 weeks): 1.6% | Hot flush events, SEVERE, number of subjects ([3]; Cp1 2 mg, N = 61, 12 weeks): 0 | Hot flush events, Total, number of subjects ([3]; Cp1 2 mg, N = 61, 12 weeks): 5 | Hot flush events, Total, percent of subjects ([3]; Cp1 2 mg, N = 61, 12 weeks): 8.2% | Hot flush events, MILD, number of subjects ([3]; Cp1 4 mg, N = 60, 12 weeks): 5 | Hot flush events, MILD, percent of subjects ([3]; Cp1 4 mg, N = 60, 12 weeks): 8.3% | Hot flush events, MODERATE, number of subjects ([3]; Cp1 4 mg, N = 60, 12 weeks): 3 | Hot flush events, MODERATE, percent of subjects ([3]; Cp1 4 mg, N = 60, 12 weeks): 5.0% | Hot flush events, SEVERE, number of subjects ([3]; Cp1 4 mg, N = 60, 12 weeks): 0 | Hot flush events, Total, number of subjects ([3]; Cp1 4 mg, N = 60, 12 weeks): 8 | Hot flush events, Total, percent of subjects ([3]; Cp1 4 mg, N = 60, 12 weeks): 13.3% | Subjects showing mild to moderate hot flushes, overall ([3]; all dose groups, 12 weeks): no more than 14% | Change of estradiol (E2) concentrations during treatment ([4]; 0.5-4 mg once daily, 12 weeks): slight decrease | Estradiol concentrations in serum, Max [4, 5]: 262 pg/mL | Estradiol concentrations in serum, Mean [4, 5]: 116.1 pg/mL | Estradiol concentrations in serum, Median [4, 5]: 79.9 pg/mL | Estradiol concentrations in serum, Min [4, 5]: 17 pg/mL | Estradiol concentrations in serum, Max [4, 6]: 381 pg/mL | Estradiol concentrations in serum, Mean [4, 6]: 138 pg/mL | Estradiol concentrations in serum, Median [4, 6]: 104.5 pg/mL | Estradiol concentrations in serum, Min [4, 6]: 14 pg/mL | Estradiol concentrations in serum, Max [4, 7]: 423 pg/mL | Estradiol concentrations in serum, Mean [4, 7]: 135.6 pg/mL | Estradiol concentrations in serum, Median [4, 7]: about 80 pg/mL | Estradiol concentrations in serum, Min [4, 7]: 23 pg/mL | Estradiol concentrations in serum, Median ([4]; Cp1 0.5 mg once daily oral, Treatment D 84, listed as Cp1): 82 pg/mL | Estradiol concentrations in serum, Max [4, 8]: 305 pg/mL | Estradiol concentrations in serum, Mean [4, 8]: 143.8 pg/mL | Estradiol concentrations in serum, Median [4, 8]: 119.2 pg/mL | Estradiol concentrations in serum, Min [4, 8]: 39 pg/mL | Estradiol concentrations in serum, Max [4, 9]: 311 pg/mL | Estradiol concentrations in serum, Mean [4, 9]: 143.3 pg/mL | Estradiol concentrations in serum, Median [4, 9]: 92.3 pg/mL | Estradiol concentrations in serum, Min [4, 9]: 39 pg/mL | Estradiol concentrations in serum, Max [4, 10]: 276 pg/mL | Estradiol concentrations in serum, Mean [4, 10]: 119.4 pg/mL | Estradiol concentrations in serum, Median [4, 10]: about 80 pg/mL | Estradiol concentrations in serum, Min [4, 10]: 42 pg/mL | Estradiol concentrations in serum, Median ([4]; Cp1 1 mg once daily oral, Treatment D 84, listed as Cp1): 81.5 pg/mL | Estradiol concentrations in serum, Max [4, 11]: 395 pg/mL | Estradiol concentrations in serum, Mean [4, 11]: 123.9 pg/mL | Estradiol concentrations in serum, Median [4, 11]: 80.9 pg/mL | Estradiol concentrations in serum, Min [4, 11]: 33 pg/mL | Estradiol concentrations in serum, Max [4, 12]: 308 pg/mL | Estradiol concentrations in serum, Mean [4, 12]: 113.5 pg/mL | Estradiol concentrations in serum, Median [4, 12]: 82.2 pg/mL | Estradiol concentrations in serum, Min [4, 12]: 33 pg/mL | Estradiol concentrations in serum, Max [4, 13]: 330 pg/mL | Estradiol concentrations in serum, Mean [4, 13]: 91.2 pg/mL | Estradiol concentrations in serum, Median [4, 13]: about 80 pg/mL | Estradiol concentrations in serum, Min [4, 13]: 34 pg/mL | Estradiol concentrations in serum, Median ([4]; Cp1 2 mg once daily oral, Treatment D 84, listed as Cp1): 78.5 pg/mL | Estradiol concentrations in serum, Max [4, 14]: 279 pg/mL | Estradiol concentrations in serum, Mean [4, 14]: 109.9 pg/mL | Estradiol concentrations in serum, Median [4, 14]: 88.7 pg/mL | Estradiol concentrations in serum, Min [4, 14]: 41 pg/mL | Estradiol concentrations in serum, Max [4, 15]: 200 pg/mL | Estradiol concentrations in serum, Mean [4, 15]: 126.4 pg/mL | Estradiol concentrations in serum, Median [4, 15]: 122.9 pg/mL | Estradiol concentrations in serum, Min [4, 15]: 44 pg/mL | Estradiol concentrations in serum, Max [4, 16]: 81 pg/mL | Estradiol concentrations in serum, Mean [4, 16]: 53.9 pg/mL | Estradiol concentrations in serum, Median [4, 16]: about 50 pg/mL | Estradiol concentrations in serum, Min [4, 16]: 39 pg/mL | Estradiol concentrations in serum, Median ([4]; Cp1 4 mg once daily oral, Treatment D 84, listed as Cp1): 50.5 pg/mL | Reversibility of estradiol (E2) decrease after end of treatment ([4]; pre-treatment vs follow-up Cycle 2): completely reversible

— patent US10485808B2, “Selective progesterone receptor modulators (SPRM) and stabilized estrogen level in patient” (BAYER PHARMA AKTIENGESELLSCHAFT, priority 2017, dated 2019)
